Source: PubChem BioAssay AID248 (DTP/NCI, 2004)
Several values for one entry are separate records, joined by “and”; a condition that tells them apart may be missing. Equal entries are not always repeated. Inconclusive results and toxic doses are left out.

Test system: L1210 leukemia ip in BDF1 mice, survival T/C
Assay: NCI In Vivo Anticancer Drug Screen. Data for tumor model L1210 Leukemia (intraperitoneal) in B6D2F1 (BDF1) mice
Details: endpoint: mean survival time, higher = longer survival
Procedure: The antitumor activity of compounds was measured in mice bearing transplantable tumors. Survival or tumor size were measured and the results are expressed as the measurement made in the treated group (T) divided by the measurement made in the vehicle treated control group (C). The tumor model used in this assay is L1210 Leukemia (intraperitoneal) in B6D2F1 (BDF1) mice

[1] = dose: 100.0 mg/kg/injection, schedule: Q04DX002 (ip), vehicle: saline with Tween-80
[2] = dose: 200.0 mg/kg/injection, schedule: Q04DX002 (ip), vehicle: saline with Tween-80
[3] = dose: 100.0 mg/kg/injection, schedule: Q04DX002 (ip), vehicle: saline
[4] = dose: 100.0 mg/kg/injection, schedule: Q01DX009 (ip), vehicle: saline
[5] = dose: 100.0 mg/kg/injection, schedule: Q01DX001 (ip), vehicle: saline
[6] = dose: 200.0 mg/kg/injection, schedule: Q01DX001 (ip), vehicle: saline
[7] = dose: 400.0 mg/kg/injection, schedule: Q01DX001 (ip), vehicle: saline
[8] = dose: 25.0 mg/kg/injection, schedule: Q01DX009 (ip), vehicle: saline with Tween-80
[9] = dose: 50.0 mg/kg/injection, schedule: Q01DX009 (ip), vehicle: saline with Tween-80
[10] = dose: 100.0 mg/kg/injection, schedule: Q04DX003 (ip), vehicle: saline with Tween-80
[11] = dose: 200.0 mg/kg/injection, schedule: Q01DX009 (ip), vehicle: saline
[12] = dose: 400.0 mg/kg/injection, schedule: Q01DX009 (ip), vehicle: saline
[13] = dose: 100.0 mg/kg/injection, schedule: Q04DX003 (ip), vehicle: saline
[14] = dose: 200.0 mg/kg/injection, schedule: Q04DX003 (ip), vehicle: saline
[15] = dose: 400.0 mg/kg/injection, schedule: Q04DX003 (ip), vehicle: saline
[16] = dose: 100.0 mg/kg/injection, schedule: Q01DX009 (ip), vehicle: saline with Tween-80
[17] = dose: 200.0 mg/kg/injection, schedule: Q01DX009 (ip), vehicle: saline with Tween-80
[18] = dose: 200.0 mg/kg/injection, schedule: Q04DX003 (ip), vehicle: saline with Tween-80
[19] = dose: 400.0 mg/kg/injection, schedule: Q04DX003 (ip), vehicle: saline with Tween-80
[20] = dose: 100.0 mg/kg/injection, schedule: Q04DX003 (ip), vehicle: Klucel (hydroxypropylcellulose) (HPC)
[21] = dose: 200.0 mg/kg/injection, schedule: Q04DX003 (ip), vehicle: Klucel (hydroxypropylcellulose) (HPC)
[22] = dose: 400.0 mg/kg/injection, schedule: Q04DX003 (ip), vehicle: Klucel (hydroxypropylcellulose) (HPC)
[23] = dose: 100.0 mg/kg/injection, schedule: Q04DX002 (ip), vehicle: Klucel (hydroxypropylcellulose) (HPC)
[24] = dose: 200.0 mg/kg/injection, schedule: Q04DX002 (ip), vehicle: Klucel (hydroxypropylcellulose) (HPC)
[25] = dose: 400.0 mg/kg/injection, schedule: Q04DX002 (ip), vehicle: Klucel (hydroxypropylcellulose) (HPC)

COc1ccccc1NC(=S)NCc1ccco1
T/C [1]: 89 % of control | T/C [2]: 89 % of control

CN(CCO)Cc1ccc2ccccc2c1
T/C (dose: 150.0 mg/kg/injection, schedule: Q01DX015 (ip), vehicle: saline): 92 % of control

CC(N)C(=O)NC(CC(=O)O)C(=O)O (stereo not drawn)
T/C (dose: 25.0 mg/kg/injection, schedule: Q04DX002 (ip), vehicle: saline): 98 % of control | T/C (dose: 50.0 mg/kg/injection, schedule: Q04DX002 (ip), vehicle: saline): 94 % of control | T/C [3]: 94 % of control

CC1=Nc2ccccc2NC(C)C1C (stereo not drawn)
T/C (dose: 12.5 mg/kg/injection, schedule: Q01DX009 (ip), vehicle: Klucel (hydroxypropylcellulose) (HPC)): 100 % of control | T/C (dose: 25.0 mg/kg/injection, schedule: Q01DX009 (ip), vehicle: Klucel (hydroxypropylcellulose) (HPC)): 96 % of control | T/C (dose: 50.0 mg/kg/injection, schedule: Q01DX009 (ip), vehicle: Klucel (hydroxypropylcellulose) (HPC)): 108 % of control | T/C [4]: 91 % of control

COc1ccc(/C(C#N)=C2\OC(=O)c3ccccc32)cc1OC
T/C (dose: 100.0 mg/kg/injection, schedule: Q01DX001 (ip), vehicle: carboxymethylcellulose (CMC)): 89 % of control | T/C (dose: 200.0 mg/kg/injection, schedule: Q01DX001 (ip), vehicle: carboxymethylcellulose (CMC)): 94 % of control | T/C (dose: 400.0 mg/kg/injection, schedule: Q01DX001 (ip), vehicle: carboxymethylcellulose (CMC)): 89 % of control

O=C1C2Nc3ccccc3CC2CN1Cc1ccccc1 (stereo not drawn)
T/C (dose: 10.0 mg/kg/injection, schedule: Q04DX003 (ip), vehicle: alcohol): 106 % of control | T/C (dose: 20.0 mg/kg/injection, schedule: Q04DX003 (ip), vehicle: alcohol): 99 % of control | T/C (dose: 40.0 mg/kg/injection, schedule: Q04DX003 (ip), vehicle: alcohol): 99 % of control | T/C (dose: 80.0 mg/kg/injection, schedule: Q04DX003 (ip), vehicle: alcohol): 97 % of control | T/C (dose: 160.0 mg/kg/injection, schedule: Q04DX003 (ip), vehicle: alcohol): 100 % of control

Clc1ccc(-c2nnc3c4ccccc4ccn23)cc1
T/C [5]: 104 % of control | T/C [6]: 93 % of control | T/C [7]: 98 % of control

CCN(CC)CCCOC(=O)N(Cc1ccc(Cl)cc1)C1CC1
T/C [8]: 100 % of control | T/C [9]: 93 % of control | T/C [10]: 102 % of control

O=C(O)CCC(=O)Nc1cc(C(F)(F)F)ccc1Cl
T/C [3]: 102 % of control | T/C (dose: 200.0 mg/kg/injection, schedule: Q04DX002 (ip), vehicle: saline): 97 % of control | T/C (dose: 400.0 mg/kg/injection, schedule: Q04DX002 (ip), vehicle: saline): 108 % of control

CSc1nc(N)nc2c1ncn2C1OC(CO)CC1O (stereo not drawn)
T/C [5]: 107 % of control | T/C [6]: 104 % of control | T/C [7]: 115 % of control

Cc1[nH]c(=O)[nH]c(=O)c1/C=C/C(=O)O
T/C [5]: 97 % of control | T/C [4]: 108 % of control | T/C [6]: 100 % of control | T/C [11]: 102 % of control | T/C [7]: 97 % of control | T/C [12]: 106 % of control

CC(C)SC=O
T/C (dose: 50.0 mg/kg/injection, schedule: Q01DX009 (ip), vehicle: saline): 94 % of control | T/C [4]: 93 % of control | T/C [13]: 100 % of control | T/C [11]: 93 % of control | T/C [14]: 105 % of control | T/C [12]: 89 % of control | T/C [15]: 100 % of control

CCN(CC)P(=O)(N1CC1)N1CC1
T/C (dose: 0.75 mg/kg/injection, schedule: Q01DX Z (ip), vehicle: saline): 109 % of control | T/C (dose: 1.15 mg/kg/injection, schedule: Q01DX Z (ip), vehicle: saline): 121 % of control | T/C (dose: 2.0 mg/kg/injection, schedule: Q01DX Z (ip), vehicle: saline): 106 % of control | T/C (dose: 2.6 mg/kg/injection, schedule: Q01DX Z (ip), vehicle: saline): 124 % of control and 215 % of control | T/C (dose: 4.0 mg/kg/injection, schedule: Q01DX Z (ip), vehicle: saline): 151 % of control | T/C (dose: 9.0 mg/kg/injection, schedule: Q01DX Z (ip), vehicle: saline): 213 % of control | T/C (dose: 14.0 mg/kg/injection, schedule: Q01DX Z (ip), vehicle: saline): 88 % of control and 91 % of control

O=C(O)Cn1c(C(F)(F)F)nc2nc(Cl)c(Cl)nc21
T/C [16]: 89 % of control | T/C [10]: 94 % of control | T/C [17]: 100 % of control | T/C [18]: 94 % of control | T/C (dose: 400.0 mg/kg/injection, schedule: Q01DX009 (ip), vehicle: saline with Tween-80): 92 % of control | T/C [19]: 97 % of control

Cc1ncc(CSCC(=O)O)c(N)n1
T/C [20]: 103 % of control | T/C [21]: 100 % of control | T/C [22]: 103 % of control

CSC(=S)NNC(=O)C1CCCCC1
T/C [13]: 106 % of control | T/C [14]: 98 % of control | T/C [15]: 104 % of control

COc1cc2c(cc1[N+](=O)[O-])OCO2
T/C [10]: 104 % of control | T/C [18]: 97 % of control | T/C [19]: 98 % of control

C/C=C(\C)C(=O)OC1CC(C)=C2C(=O)C=C(C)C2C2OC(=O)C(C)C12 (stereo not drawn)
T/C [20]: 98 % of control | T/C [21]: 102 % of control | T/C [22]: 96 % of control

CCCCCCC(=O)CCC(=O)CCCCCCCC(=O)O
T/C (dose: 50.0 mg/kg/injection, schedule: Q01DX001 (ip), vehicle: Klucel (hydroxypropylcellulose) (HPC)): 103 % of control | T/C (dose: 100.0 mg/kg/injection, schedule: Q01DX001 (ip), vehicle: Klucel (hydroxypropylcellulose) (HPC)): 89 % of control | T/C (dose: 200.0 mg/kg/injection, schedule: Q01DX001 (ip), vehicle: Klucel (hydroxypropylcellulose) (HPC)): 100 % of control

O=[N+]([O-])c1ccc(Cl)c2ccccc12
T/C (dose: 12.5 mg/kg/injection, schedule: Q01DX009 (ip), vehicle: saline with Tween-80): 94 % of control | T/C [8]: 91 % of control | T/C [9]: 87 % of control | T/C [16]: 91 % of control | T/C [17]: 88 % of control

CCOC(=O)C1C(=O)CC(=O)C(C(=O)OCC)C1C1CC=CCC1 (stereo not drawn)
T/C [1]: 91 % of control | T/C [2]: 94 % of control | T/C (dose: 400.0 mg/kg/injection, schedule: Q04DX002 (ip), vehicle: saline with Tween-80): 94 % of control

c1coc(-c2ncc3cnccn23)c1
T/C (dose: 50.0 mg/kg/injection, schedule: Q01DX005 (ip), vehicle: saline): 111 % of control | T/C (dose: 100.0 mg/kg/injection, schedule: Q01DX005 (ip), vehicle: saline): 108 % of control

O=C(/C=C\c1ccccc1)NCCCCNC(=O)/C=C/c1ccccc1
T/C [5]: 97 % of control | T/C [6]: 105 % of control | T/C [7]: 87 % of control

COc1ccc(C(C)(C)CC(C)(C)C)cc1
T/C (dose: 75.0 mg/kg/injection, schedule: Q01DX009 (ip), vehicle: Klucel (hydroxypropylcellulose) (HPC)): 111 % of control | T/C [23]: 108 % of control | T/C (dose: 150.0 mg/kg/injection, schedule: Q01DX009 (ip), vehicle: Klucel (hydroxypropylcellulose) (HPC)): 100 % of control | T/C [24]: 118 % of control | T/C (dose: 300.0 mg/kg/injection, schedule: Q01DX009 (ip), vehicle: Klucel (hydroxypropylcellulose) (HPC)): 91 % of control | T/C [25]: 101 % of control

OCC1C2C=CC(C3C=CC32)C1CO (stereo not drawn)
T/C [23]: 98 % of control | T/C [24]: 98 % of control | T/C [25]: 113 % of control
